What all share (assay): NCI tumour cell line growth inhibition, 48 h
Test [1] relates to EKVX NSCLC.
The test system of test [2] is RPMI-8226 leukemia.
The test system of test [3] is UACC-62 melanoma.
The subject of test [4] is UACC-257 melanoma.
The subject of test [5] is A498 renal.
Test [6] has as its system SK-MEL-28 melanoma.
The subject of test [7] is SK-MEL-2 melanoma.
Test [8] relates to NCI-H460 lung.
The test system of test [9] is ACHN renal.

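Exposure lasted 48 hours, with cells grown in 96-well plates and compounds tested at five concentrations. GI50 marks 50% less growth. TGI: total growth inhibition.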

As for `O=C(NOC(=O)c1ccc([N+](=O)[O-])cc1)c1ccc(Cl)cc1`, the TGI in test [1], in [2], in test [3], in test [4], in test [5] and in test [6] was more than 100 µM in each case. The TGI in test [7], in test [8] and in [9] was more than 100 µM throughout.

`Nc1nc(Cl)cc(NCCCCCCNc2cc(Cl)nc(N)n2)n1`: the TGI in [1] was more than 100 µM; in test [2] it was more than 100 µM; in test [3] it was 97.8 µM; in test [4], more than 100 µM; in [7], more than 100 µM; in test [8], more than 100 µM. In [9], the TGI was determined as 22.5 µM.

For `COc1ccc(-c2nc(/C=N/Nc3cc(C)nc4ccc(Br)cc34)c(C)o2)cc1`, the GI50 in test [1] is 1.93 µM; in [3] it was 1.76 µM; in [4], 1.94 µM; in [5], 1.49 µM; in [6] it was 1.79 µM; in [7], 1.99 µM. Also, the GI50 in [8] is 1.93 µM; in test [9], 1.73 µM. Moreover, the TGI amounted to 3.44 µM in test [1]; 3.34 µM in test [3]; 3.57 µM in [4]; 2.89 µM in test [5]; 3.23 µM in test [6]; 3.9 µM in test [7]. Moreover, the results for the TGI in test [8] and in test [9] were 3.73 µM and 3.11 µM, respectively.

As to `Cc1cc(N(CCC#N)CCC#N)ccc1/C=C/C(=O)Nc1ccccc1Cl`, the TGI in test [1], in test [2], in [3], in test [4], in [5] and in [6] was more than 100 µM in each case. Further, the TGI in test [7], in test [8] and in test [9] was more than 100 µM in each case.

`CCCCOP1(=O)C=CC(Cl)=C(C)C1` (stereo not given): the TGI in test [1] is more than 100 µM; in test [2], 85.6 µM; in test [3], 54.4 µM; in test [6] it was 31.7 µM; in [7], 50.8 µM; in test [8] it was 80.8 µM. In [9], the TGI came out at 36.3 µM.

In the case of `C=C(C[N+](C)(C)C)N/N=C/c1oc(-c2ccc(OC)c(OC)c2)c(-c2ccc(OC)c(OC)c2)c1[N+](=O)[O-]`, the TGI was more than 100 µM in test [1]; 41.4 µM in [2]; 46.6 µM in test [4]; 82.3 µM in test [5]; 33.8 µM in test [6]; 31.9 µM in test [7]. The TGI in test [8] turned out to be 40.2 µM; in test [9] it was 31.5 µM.

In the case of `COc1cc(-c2nn3c(=O)n(-c4ccc(Cl)cc4)c(=O)nc3s2)cc(OC)c1OC`, the GI50 in [1] was more than 50 µM; in test [2], more than 100 µM; in [3] it was more than 100 µM; in test [5] it was more than 50 µM; in test [6], more than 50 µM; in test [7], more than 50 µM. In addition, the GI50 in [8] and in test [9] was more than 50 µM each time. The TGI in test [1], in test [2], in [3], in test [4], in [5] and in test [6] was more than 100 µM in each case. In addition, the TGI in [7] is more than 100 µM; in test [8], more than 100 µM; in test [9] it was more than 67.7 µM.

In the case of `O=C1[C@H]2ON(c3ccccc3)C(c3cccc([N+](=O)[O-])c3)[C@H]2C(=O)N1c1ccc(Cc2ccc(N3C(=O)[C@@H]4ON(c5ccccc5)C(c5cccc([N+](=O)[O-])c5)[C@@H]4C3=O)cc2)cc1` (stereo not given in full), the TGI in test [1] was more than 100 µM; in [2], more than 100 µM; in test [3] it was more than 100 µM; in [4], more than 100 µM; in test [5], 97.5 µM; in [6], more than 100 µM. For the same compound, the TGI in [7], in [8] and in test [9] was more than 100 µM in each case.

In the case of `O=C(O)C(CS)N=Cc1nc(-c2ccccc2)oc1O` (stereo not given), the TGI in test [1], in [2], in test [3], in [4], in test [5] and in test [6] was more than 100 µM throughout. In addition, the TGI in test [7], in [8] and in [9] was more than 100 µM in each case.

Turning to `C=CCN(N=O)C(=O)ON1C(=O)CCC1=O`, the TGI in test [1], in [2], in test [3], in test [4], in test [5] and in test [6] was more than 100 µM each time. The TGI in [7], in test [8] and in test [9] was more than 100 µM throughout.

For `COC(=O)C1=C(C(=O)OC)N(C(C)C)[C@H]2C(C(=O)OC)=C(C(=O)OC)N(C(C)C)[C@@H]12`, the TGI in test [1], in test [2], in test [3], in [4], in test [5] and in test [6] was more than 100 µM throughout. In addition, the TGI in test [7], in test [8] and in test [9] was more than 100 µM in each case.

With `CCCC/C=C1\CCC(CN2CCCC2)C1=O` (stereo not given), the TGI in test [3] was found to be 31.2 µM; in test [4], 32.8 µM; in [5], 28.2 µM; in test [6], 29.1 µM; in test [7], 29.8 µM; in test [8] it was 38.2 µM. The TGI in test [9] stood at 19.2 µM.

Take `CC1(C)Oc2ccccc2N2O[C@@H]3C(=O)N(c4ccccc4)C(=O)[C@@H]3C21c1ccccc1` (stereo not given in full): the TGI was more than 100 µM in [1]; more than 100 µM in test [2]; 87.8 µM in test [3]; 78.7 µM in [4]; 47.3 µM in [5]; 85 µM in [6]. For the same compound, the TGI in test [7] is 53.3 µM; in [8] it was more than 100 µM.

Turning to `CCC1(Cl)C(=O)NC(=O)N(C2CC(O)C(CO)O2)C1N=[N+]=[N-]` (stereo not given), the TGI in test [1], in [2], in test [3], in test [4], in test [5] and in [6] was more than 100 µM each time. The TGI in test [7], in test [8] and in test [9] was more than 100 µM in each case.

Consider `BrC(Br)([P+](c1ccccc1)(c1ccccc1)c1ccccc1)[P+](c1ccccc1)(c1ccccc1)c1ccccc1`, for which the TGI was found to be 63 µM in [1]; 34.4 µM in test [2]; 29.8 µM in test [3]; 50.5 µM in test [4]; 48 µM in test [5]; 50 µM in [6]. The TGI was 38.9 µM in [7], more than 100 µM in [8] and 69.3 µM in [9].

Consider `CC12O[Te]34OC1(C)C(C)(O3)C2(C)O4`, for which the TGI in test [1] is 62.6 µM; in test [3] it was 87.5 µM; in [4] it was 33.6 µM; in [5], more than 8.75 µM; in [6], 23.3 µM; in [7], 29.8 µM. Moreover, the TGI in test [8] came out at 61.3 µM; in test [9] it was 27 µM.

`O=c1c2ccccc2c(=O)c2c1sc1c(=O)c3ccc(O)cc3c(=O)c12`: the GI50 was 1.34 µM in test [1]; 1.42 µM in [2]; 0.174 µM in test [3]; 0.28 µM in test [4]; 0.574 µM in test [5]; 0.247 µM in test [6]. Moreover, the GI50 in [7] is 1.47 µM; in test [9], 0.864 µM. Besides, the TGI in [1] is 3.66 µM; in test [2], 5.25 µM; in [3] it was 0.331 µM; in [4], 0.736 µM; in test [5], 1.72 µM; in [6], 0.541 µM. In addition, the TGI in test [7] turned out to be 3.88 µM; in test [9] it was 2.38 µM.

As for `COc1cc2c3c(c1OC)/C(=N/OS(=O)(=O)c1ccc(C)cc1)CC3N(S(=O)(=O)c1ccc(C)cc1)CC2` (stereo not given), the TGI in test [1], in test [2], in [3], in test [4], in test [5] and in test [6] was more than 100 µM in each case. The TGI in [8] and in test [9] was more than 100 µM each time.

Regarding `CN1C(=O)CC2(C)c3cc(C=O)ccc3N(C)C12` (stereo not given), the TGI in [1], in test [3], in [4], in test [5], in test [6] and in [7] was more than 100 µM each time. Besides, the TGI in test [8] and in test [9] was more than 100 µM in each case.

Turning to `CCOc1ccccc1NC(=O)CCC(=O)NN`, the TGI in [2], in [3], in test [4], in [5], in [6] and in test [7] was more than 100 µM throughout. Moreover, the TGI in [8] and in test [9] was more than 100 µM each time.

Source of the values: PubChem BioAssay (NCI).
